# Measurements: patent US20090297508A1, “Compositions and methods for treating hemostasis disorders associated with clec-2 signal transduction” (UNIVERSITY OF YAMANASHI, priority 2005, published 2009)
# Tests used:
# platelets = assay: Whole cell tyrosine phosphorylation and functional responses of platelets stimulated by rhodocytin; type: cell-based; conditions: data not shown
# CLEC-2 [1] = assay: CLEC-2 tyrosine phosphorylation in human platelets (immunoprecipitation and western blotting); type: cell-based; conditions: for block of rhodocytin-induced tyrosine phosphorylation of CLEC-2: 30 μM inhibitor pretreatment, 50 nM rhodocytin; for tyrosine phosphorylation of CLEC-2: 50 μg/ml collagen or 100 μM SFLLRN, time course of up to 5 min
# Description: (§1) Washed human platelets (1×10^9/ml) pretreated with 1 mM GRGDS (SEQ ID NO: 5) peptide or washed murine platelets (2×10^8/ml) pretreated with 10 μM lotrafiban to inhibit platelet aggregation were stimulated with 50 nM rhodocytin, 100 μM SFLLRN (SEQ ID NO: 6), or 50 μg/ml of collagen. […] Reactions were terminated by addition of 2× ice-cold lysis buffer. Platelet lysates were precleared and detergent-insoluble debris was clarified as described 17. A small aliquot was dissolved with SDS sample buffer for detection of total tyrosine phosphorylation. Antibodies against CLEC-2, PLCγ2, Syk, Btk, SLP-76, LAT, Vav1, or Vav3 were added to the resultant supernatant and incubated overnight. Where indicated, 10 μg of CLEC-2 YXXL-containing peptide plus avidin-Sepharose or GST-fusion protein-associated glutathione Sepharose were incubated with the lysates. […] The samples were lysed with 2× lysis buffer before and 5 min after stimulation. […] After removing insoluble debris by centrifugation, CLEC-2 was immunoprecipitated by addition of protein G. Precipitated proteins or whole cell lysates were separated by SDS-PAGE, electrotransferred, and western blotted by the indicated antibodies.
# [2] = test system: Syk, Btk, LAT, SLP-76, Vav1, Vav3, PLCγ2; assay: Tyrosine phosphorylation of signaling proteins of the GPVI cascade in platelets; type: cell-based, human; conditions: PP2 present; not shown
# CLEC-2 [3] = assay: Precipitation of CLEC-2 from platelet lysates by GST fusion protein of tandem Syk SH2 domains; type: cell-based, human; conditions: 30 μM PP2 pretreatment, 50 nM rhodocytin
# Description: (A) Washed murine platelets were stimulated with 50 nM rhodocytin for the indicated times. Whole cell lysates or immunoprecipitates with antibodies against PLCγ2, Vav1, or Vav3 were separated by SDS-PAGE and western blotted with the indicated antibodies. (B) Control or Syk-deficient platelets were stimulated with 30 nM rhodocytin and platelet aggregation was monitored using an aggregometer. (C) (i)(ii) Washed human platelets, pretreated with or without 30 μM PP2, were stimulated with 50 nM rhodocytin or 10 μg/ml of convulxin for the indicated times. Reactions were terminated by addition of an equal volume of 2× lysis buffer. […] The resultant supernatant was incubated with 40 μl of glutathione beads associated with GST fusion protein containing tandem Syk SH2 domains. Precipitated proteins were separated by SDS-PAGE and western blotted with an antibody to CLEC-2. (iii) CLEC-2 associated with 10 μg of CLEC-2 phospho-YXXL-containing peptide plus avidin-sepharose was detected by CLEC-2 antibody. The data are representative of 2-5 experiments.
# Syk = Syk (Homo sapiens, UniProt P43405); conditions: 10 μg peptide plus avidin-Sepharose, platelet lysates
# Description: as §1
compound,measurement,setting,value
Cc1ccc(-c2nn(C(C)(C)C)c3ncnc(N)c23)cc1 [PP1],block of tyrosine phosphorylation in whole cells and functional responses to rhodocytin,platelets,block tyrosine phosphorylation in whole cells and all functional responses
CC(C)(C)n1nc(-c2ccc(Cl)cc2)c2c(N)ncnc21 [PP2],block of rhodocytin-induced tyrosine phosphorylation of CLEC-2,CLEC-2 [1],block tyrosine phosphorylation of both the 32 and 40 kDa forms of CLEC-2
same,block of tyrosine phosphorylation in whole cells and functional responses to rhodocytin,platelets,block tyrosine phosphorylation in whole cells and all functional responses
same,"effect on rhodocytin-induced tyrosine phosphorylation of Syk, Btk, LAT, SLP-76, Vav1, Vav3, PLCγ2",[2],abolished
same,effect on precipitation of CLEC-2 by Syk fusion protein from rhodocytin-stimulated platelets,CLEC-2 [3],abolished
Nc1ncnc2c1cnn2-c1ccccc1 [PP3],block of rhodocytin-induced tyrosine phosphorylation of CLEC-2,CLEC-2 [1],not
Biotin-6-aminohexanoic acid (Ahx)-MQDEDGY(PO3H2)ITLNIK-OH,interaction of Syk with CLEC-2 YXXL peptide,Syk,Syk could be precipitated
Biotin-6-aminohexanoic acid (Ahx)-MQDEDGYITLNIK-OH [non-phosphorylated peptide],interaction of Syk with CLEC-2 YXXL peptide,Syk,no interaction
Ser-Phe-Leu-Leu-Arg-Asn (SFLLRN),tyrosine phosphorylation of CLEC-2,CLEC-2 [1],does not undergo tyrosine phosphorylation
collagen,tyrosine phosphorylation of CLEC-2,CLEC-2 [1],does not undergo tyrosine phosphorylation
